Assay results taken from paper PMC7187627 (Antimicrobial Agents and Chemotherapy, 2019).
“Also recorded” adds a separate entry of the source.

How the values were obtained:
[1] = set-up: method as in PMID 28584140; details: cited from earlier work
gut microbiota = assay: Fecal microbiome analysis by 16S rRNA gene sequencing; assay type: in vivo, human
Protocol: Fecal microbiota profiles were measured for each sample as each operational taxonomic unit (OTU) species present and the relative abundance of that species, based on a region of 469 bp encompassing the V3 and V4 hypervariable regions of the 16S rRNA gene, following protocols developed at the Department of Microbiology and Immunology, University of Maryland School of Medicine Institute for Genome Sciences, Baltimore, MD ([40][–][42]).
(i) Sample collection and storage and DNA extraction. Fecal samples were collected at nine time points during the study for fecal microbiome analysis: twice before the first dose, on days 1, 4, 7, 9, and 12, and approximately 24 h prior to follow-up visits on day 18 and day 29. The subject was allowed to collect and bring the first fecal sample when admitted (collected within 24 h of admission and kept refrigerated until collected by staff). DNA was extracted from 150 mg of archived stool samples stored at –80°C for 16S rRNA gene amplification and sequencing. Cell lysis was initiated by adding 50 μl of lyzosyme (10 mg/ml), 6 μl of mutanolysin (25,000 U/ml; Sigma-Aldrich), and 3 μl of lysostaphin (4,000 U/ml in sodium acetate; Sigma-Aldrich) and 41 μl of TE50 buffer (10 mM Tris-HCl, 50 mM EDTA [pH 8.0]). Following a 1-h incubation at 37°C, 10 μl of proteinase K (20 mg/ml), 100 μl of 10% SDS, and 20 μl of RNase A (20 mg/ml) were added to the mixture and incubated for 1 h at 55°C. Microbial cells were lysed by mechanical disruption using a bead beater (FastPrep instrument; Qbiogene) set at 6.0 m/s for 30 s. DNA was purified from the lysate using the QIAsymphony robotics platform, consistently providing between 5 and 20 μg of high-quality and amplifiable whole genomic DNA. Following DNA quantitation via the Quant-iTTM PicoGreen double-stranded DNA (dsDNA) assay kit (Life Technologies), samples were diluted to a 5-ng/μl concentration.
PCRs with dually barcoded 16S rRNA universal primers (319F/806R) were set up using a semiautomated platform with a ViaFlo 96 high-performance 96-channel pipettor and performed on Bio-Rad Tetrad 2 instruments with up to 576 dual index barcoding ([40]). […] The cycling parameters were 30 s of denaturation at 98°C, followed by 30 cycles of 15 s at 98°C (denaturing), 15 s at 58°C (annealing), and 15 s at 72°C (elongation), with a final extension at 72°C for 60 s. Controls included a no-template control for each barcode combination, extraction controls, and a DNA sample of known composition (positive control). The presence of amplicons was confirmed by gel electrophoresis on a 2% E-gel 96. PCR products were normalized using the SequalPrep normalization kit (Life Technologies, Carlsbad, CA) and pooled in equimolar amounts (25 ng) in a single tube. Amplification primers and reaction buffer were removed from the pooled amplicon mixtures using an AMPure kit (Agencourt). The purified amplicon mixtures (up to 576 per pool) were sequenced on an Illumina MiSeq instrument using the 300-bp paired-end protocol (MiSeq 300PE) at the Genomics Resource Center (GRC) at the Institute for Genome Sciences, University of Maryland School of Medicine.
(iii) Bioinformatic analysis. For sequence quality control, assembly, and taxonomic assignments, a custom bioinformatics pipeline ([40]) was applied that relies on QIIME software ([43]), UCHIME ([44]), and the RDP Naïve Bayesian classifier ([45]). Baseline for fecal microbiome assessments was defined as the mean of the predose assessments on day 1. Presence was defined as positive abundance. The presence of each OTU species and the shift in presence/absence occurrence from baseline were tabulated by treatment. Shifts were categorized as no change, appearance, and disappearance.
Additional 16S rRNA data analysis was performed at the Division of Biomedical Informatics and Personalized Medicine, University of Colorado. Joined and quality-filtered sequences sharing >97% sequence similarity were binned as OTUs. […]

C. difficile = system: C. difficile; set-up: method as in PMID 19258353, PMID 19251726; details: cited from earlier work

For `O=c1cc(NCCCN[C@@H]2CCOc3c(Br)cc(Br)cc32)[nH]c2ccsc12` [CRS3123], which “share of oral dose metabolized into glucuronide conjugates detectable in urine” value [1] is on record?
The value was “a small fraction”.

And the “systemic absorption following oral dosing” value ([1]; preclinical testing and SAD study 100 mg to 1,200 mg)?
The value was “low systemic absorption”.

And the safety and tolerability ([1]; single oral doses 100 mg to 1,200 mg)?
The safety and tolerability was “safe and well tolerated”.

What about the “median weighted UniFrac distance to placebo arm (community composition)” value (“median weighted UniFrac distance” below) (gut microbiota; 200 mg, day 9, P = 0.006) of the same molecule?
Its value is 0.361.

What about the “proteobacteria, maximum relative abundance” value (gut microbiota; 200 mg, pretreatment value 0.8%) of the same molecule?
The value was 1.6%.

What about the “median weighted UniFrac distance” value (gut microbiota; 400 mg, day 9, P = 0.027) of the same molecule?
The value was 0.440.

What about the “median weighted UniFrac distance” value (gut microbiota; 400 mg, day 29, P = 0.177) of the same molecule?
Its value is 0.4480.

And the “proteobacteria, relative abundance” value (gut microbiota; 600 mg)?
Its value is less than 10%.

And the “median weighted UniFrac distance” value (gut microbiota; 600 mg, day 9, P = 0.013)?
The value was 0.663.

And the “median weighted UniFrac distance” value (gut microbiota; 600 mg, day 29, P = 0.077)?
The value was 0.470.

And the increase in proteobacteria (gut microbiota; 200-mg and 400-mg doses)?
The increase in proteobacteria was “did not see an increase”.

And the “proportion of the major phyla in stool over time” value (gut microbiota; 200-mg dosing group, not different from placebo)?
Its value is “minimal changes over time”.

What about the “relative abundance of Firmicutes” value (gut microbiota; 400-mg- and 600-mg-BID dosing groups, Bacteroidetes and Actinobacteria increased) of the same molecule?
Its value is “decreased”.

And the “changes in highly abundant intestinal genera” value (gut microbiota; after 9 days of twice-daily dosing, exception target genus Clostridium)?
Its value is “no significant changes”.

And the “loss of phyla during treatment” value (gut microbiota; any dose)?
Its value is “no phyla were lost”.

And the “time until composition was back to baseline levels after stopping the treatment” value (gut microbiota; any dose)?
The value was no more than 7 days.

What about the “effect on commensal anaerobes (Bacteroides, bifidobacteria, Clostridium clusters XIVa and IV)” value (gut microbiota; stool microbiome of healthy subjects) of the same molecule?
Its value is “inactive; also recorded: did not impact”.

And the “percentage of subjects with Clostridium species isolated at baseline but not at subsequent visits” value (gut microbiota; treatment phase, day 1 through day 10, versus placebo)?
Its value is “greater in the CRS3123 treatment groups than in the placebo group”.

And the “disruption of normal gut microbiota” value (gut microbiota; two lower doses (200, 400 mg), 10 days twice daily)?
Its value is “minimal disruption”.

What about the “C. difficile toxin production and sporulation” value (C. difficile) of the same molecule?
The value was “inhibits”.
